Measurements as given in PubChem BioAssay AID1918936 (Molecular Pharmacology Branch, DTP, NCI, 2023).
pIC50: −log10 of the molar value.

Tested on: 349418-098-R-PDC complex spheroid viability
Assay: Anticancer human tumor 349418-098-R-PDC patient-derived lung adenocarcinoma cell line growth inhibition
Conditions: for pIC50: curve of first compound; for viability, T/C: stronger effect = lower value; active = viability on the fitted dose curve at most 10% of control; inactive = the rest
Description: Multicellular complex tumor spheroid response to LSD1 Inhibitor Iadademstat in combination with a variety of drugs and investigational agents in selected tumor cell lines
The current study was undertaken to assess response to LSD1 inhibitors in combination with standard-of-care drugs and investigational agents in solid tumor complex spheroid models as well as in the K-562 leukemia. Complex spheroids include a stromal component modeled by human endothelial cells (HUVEC) and fibroblasts modeled by human mesenchymal stem cells (MSCs). The concentration ranges selected for each drug and investigational agent were based upon clinically achievable concentrations if the clinical Cmax of the agent was known.
Compounds. The drugs and investigational agents used in this study are listed on Table 1. All of the agents used, including staurosporine (NSC755774) and gemcitabine (NSC613327), were obtained from the Developmental Therapeutics Program, NCI. FDA-approved anticancer drugs are available from the NCI at http://dtp.nci.nih.gov/branches/dscb/oncology_drugset_explanation.html. Drugs and investigational agents were >95% pure by proton nuclear magnetic resonance (NMR) and liquid chromatography/mass spectrometry (LC/MS). Stock solutions were prepared at 400x in DMSO, stored at -70 degrees C, and diluted in fresh medium prior to their use. The final concentration of DMSO in cell culture wells never exceeded 0.25% (v/v). The FDA-approved anticancer drug set is available from the Developmental Therapeutics Program at https://dtp.cancer.gov/organization/dscb/obtaining/available_plates.htm. All drugs and investigational agents were tested over a range starting from a high concentration at or near the clinical Cmax and decreasing in half-log increments. If the clinical Cmax for an agent had not been determined, the highest concentration tested was 10 microM.
Cell Lines. The patient-derived cancer cell (PDC) lines: 292921-168-R-J2-PDC, K24384-001-R-PDC, and 521955-158-R2-J5-PDC pancreatic carcinomas, 556581-035-R-J1 ovarian carcinoma, 324938-238-R-J1-PDC, 855422-203-R-J1-PDC and 883617-216-R-J1-PDC urothelial bladder carcinomas, 743489-274-T-PDC renal cell carcinoma, 138582-R-J1 Merkel cell tumor, K60290-347-R-J1 and K57222-313-R-J1-PDC glioblastomas, 653999-131-R-J2-PDC, LG0703-F948-PDC, and 349418-098-R-PDC non-small cell lung carcinomas, 885512-296-R-J2-PDC, 171881-019-R-J1-PDC breast carcinomas and 186277-243-T-J2-PDC and 233499-124-R-J2-PDC colon carcinomas were obtained from the NCI Patient-Derived Models Repository (PDMR, https://pdmr.cancer.gov). The established cell lines NCI/ADR-RES (RRID:CVCL_14520 and OVCAR-5 (RRID:CVCL_1628) ovarian carcinomas, 786-O (RRID:CVCL_1051) and A498 (RRID:CVCL_A498) renal cell carcinoma, NCI-H211 (ATCC, cat. CRL-5824; RRID:CVCL_1529), NCI-H196 (ATCC, cat. CRL-5823, RRID:CVCL_1509), SW 1271 (ATCC, cat. CRL-2177, RRID:CVCL_1716) and NCI-H1876 (ATCC, cat. CRL-5902, RRID:CVCL_1503) small cell lung carcinomas, MDA-MB-231 (RRID:CVCL_0062) and MDA-MB-468 (RRID:CVCL_0419)breast carcinomas (10-12). Pooled donor human umbilical vein endothelial cells (HUVEC, Lonza, cat. CC-2519) and human mesenchymal stem cells (hMSC, Lonza, cat. PT-2501) were purchased from Lonza (Walkersville, MD).
Cell Culture. All cells were maintained in an incubator at 37 degrees C and 5% CO2 with 95% humidity. The PDC lines were cultured according to standard operating procedures established by the NCI PDMR (https://pdmr.cancer.gov). Briefly all PDCs were thawed and cultured in Matrigel-coated flasks prepared with a working solution of 1X Ham's F-12 nutrient mix, without supplementation (Invitrogen, Waltham, MA, cat. 11765054), 100 U/mL penicillin-streptomycin (Invitrogen, cat. 15140122), and 2.5% Matrigel (Corning Inc., Corning, NY, cat. 354248) for the first three passages. […]
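Note: spheroids exposed to agents for seven days before readout.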

COc1cc(C2c3cc4c(cc3C(OC3OC5COC(C)OC5C(O)C3O)C3COC(=O)C23)OCO4)cc(OC)c1O (stereo not given) + NC1CCC(NC2CC2c2ccccc2)CC1
inactive: viability, T/C (second compound 0.1 µM, first compound 0.00949 µM) 105% | viability, T/C (second compound 0.1 µM, first compound 0.03 µM) 83.1% | viability, T/C (second compound 0.1 µM, first compound 0.0949 µM) 44.7% | viability, T/C (second compound 0.1 µM, first compound 0.3 µM) 14.6% | viability, T/C (second compound 0.316 µM, first compound 0.00949 µM) 91.9% | viability, T/C (second compound 0.316 µM, first compound 0.03 µM) 100% | viability, T/C (second compound 0.316 µM, first compound 0.0949 µM) 47.7% | viability, T/C (second compound 1 µM, first compound 0.00949 µM) 108% | viability, T/C (second compound 1 µM, first compound 0.03 µM) 91.5% | viability, T/C (second compound 1 µM, first compound 0.0949 µM) 45.6% | viability, T/C (second compound 1 µM, first compound 0.3 µM) 16% | viability, T/C (second compound 3.16 µM, first compound 0.00949 µM) 106% | viability, T/C (second compound 3.16 µM, first compound 0.03 µM) 86.4% | viability, T/C (second compound 3.16 µM, first compound 0.0949 µM) 47.6% | viability, T/C (second compound 3.16 µM, first compound 0.3 µM) 14.2% | viability, T/C (second compound 10 µM, first compound 0.00949 µM) 89.6% | viability, T/C (second compound 10 µM, first compound 0.03 µM) 67% | viability, T/C (second compound 10 µM, first compound 0.0949 µM) 37.2% | viability, T/C (second compound 10 µM, first compound 0.3 µM) 13.8%
active: viability, T/C (second compound 0.1 µM, first compound 0.949 µM) 6.37% | viability, T/C (second compound 0.1 µM, first compound 3 µM) 4.96% | viability, T/C (second compound 0.316 µM, first compound 0.3 µM) 15.1% | viability, T/C (second compound 0.316 µM, first compound 0.949 µM) 6.33% | viability, T/C (second compound 0.316 µM, first compound 3 µM) 5.43% | viability, T/C (second compound 1 µM, first compound 0.949 µM) 6.74% | viability, T/C (second compound 1 µM, first compound 3 µM) 5.14% | viability, T/C (second compound 3.16 µM, first compound 0.949 µM) 6.91% | viability, T/C (second compound 3.16 µM, first compound 3 µM) 5.13% | viability, T/C (second compound 10 µM, first compound 0.949 µM) 6.9% | viability, T/C (second compound 10 µM, first compound 3 µM) 5.24%
7.10: pIC50 (second compound 0.1 µM)
7.06: pIC50 (second compound 1 µM)
7.05: pIC50 (second compound 0.316 µM)
7.07: pIC50 (second compound 3.16 µM)
7.24: pIC50 (second compound 10 µM)
